Data set [1] deals with A. baumannii. Put plainly: MIC by broth dilution, A. baumannii. The class given is cell-based. The settings on record: Acinetobacter baumannii, Mueller-Hinton broth. In outline:
(§1)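 Broth dilution in Mueller-Hinton broth with 2-fold compound steps over 1–256 μg/mL (final) and 5×10^5 CFU/mL inoculum, incubated overnight at 37 °C. The MIC is the lowest concentration without visible turbidity, from at least biological duplicates of technical triplicates. A parallel series was supplemented with 5% (final) human plasma.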
For orientation: In broth dilution the organism is exposed to a series of concentrations in liquid medium.

Another data set deals with S. aureus. Put plainly: MIC by broth dilution, S. aureus. The class given is cell-based. The settings on record: for MIC: Staphylococcus aureus, Mueller-Hinton broth; for selectivity for Gram positive microbes over Gram negative microbes, in words: S. aureus vs A. baumannii. An outline of the steps:
as §1

Data set [2] relates to A. baumannii. The data set is described as follows: MIC by broth dilution in presence of 5% human plasma (esterases), A. baumannii. The class given is cell-based. The settings on record: for Δ MIC A. baumannii + human plasma: broth supplemented with 5% human plasma (esterases) vs no plasma. The protocol: The antibacterial efficacy of ammonium compounds in the presence of human plasma was assessed. Minimum inhibitory concentrations (MICs) were determined by broth dilution method. Dilutions of each compound, ranging from 1 μg/mL to 256 μg/mL (final concentrations) were prepared in Mueller-Hinton broth. For the plasma containing samples, compound dilutions were made in Mueller-Hinton broth and supplemented with 5% (final %) human plasma (esterases). Compound dilutions were added to wells of a 96-well plate, with the concentration of the compound increasing 2-fold by row. Each well contained 5×10^5 CFU/mL of target bacterium in a total volume of 100 μL. Plates were incubated overnight at 37° C. The following day, plates were evaluated for a visual change in growth to determine the MIC. The concentration value corresponding to the first row that no longer had visible bacterial growth, as evaluated by turbidity in the wells, was recorded as the MIC. MIC values were representative of at least biological duplicates, each made up of technical triplicates.

Data set [3] concerns enterotoxigenic Escherichia coli (ETEC). The data set is described as follows: Mouse assay, oral inoculation with ETEC, viable bacteria in intestines. The class given is in vivo. The settings on record: neonate CD-1 mice, 10^7 CFU oral, compound co-administered at 1 mg/kg, intestines harvested after 4 hours. The protocol:
(§2) Mouse assays were used to evaluate the in vivo activity of compound 95. Male and female neonate CD-1 mice were orally innoculated with 10^7 colony forming units of enterotoxigenic Escherichia coli (ETEC) (FIG. 2A) or vancomycin-resistant enterococcus (VRE) (FIG. 2B) and co-administered compound 95 at 1 mg/kg. Intestines were harvested after 4 hours and plated to determine viable bacteria.

Data set [4] deals with vancomycin-resistant enterococcus (VRE). Put plainly: Mouse assay, oral inoculation with VRE, viable bacteria in intestines. The class given is in vivo. The settings on record: neonate CD-1 mice, 10^7 CFU oral, compound co-administered at 1 mg/kg, intestines harvested after 4 hours. The protocol: as §2
In another data set the test system is human red blood cell. Put plainly: In vitro hemolysis assay. The class given is cell-based. The settings on record: for % hemolysis at 16 μg/ml / % hemolysis at 32 μg/ml: human RBCs, 37° C., 1 hour; for hemolysis as compared to otilonium bromide (11), in words: 16 and 32 μg/mL; for reduction in hemolysis as compared to otilonium bromide (11): at 32 μg/mL. The protocol:
The hemolytic potential of ammonium compounds were assessed in vitro. A human red blood cell solution (RBC) was prepared by washing 400 μL of fresh RBCs twice with 7 mL of 1×PBS (pH 7.4) by centrifugation at 4° C., 2500 rpm for 10 minutes. The precipitates were then resuspended in 4 mL of 1×PBS. Hemolysis testing was performed by mixing 500 μL of freshly prepared test compound solutions at a final concentration of both 16 μg/mL and 32 μg/mL in 1×PBS with 400 μL of the washed human RBCs. Two control samples were prepared by separately mixing 400 μL of washed RBCs with 500 μL of 1×PBS (negative control) and 1% Triton X-100 (w/v). After incubation in a water bath at 37° C. for 1 hour, the samples were centrifuged at 2500 rpm for 10 minutes. 300 μL of the supernatant were collected for measurement in a 96-well plate. The release of hemoglobin was assessed by measuring the absorbance of the samples at 540 nm using 1×PBS as the blank. Hemolysis percent was calculated using Equation 1: […]

The mark [5] stands for this setting: no plasma, Table 2, read-out: MIC (μg/ml) A. baumannii.
Setting [6] is: overnight 37° C., Table 1, read-out: MIC (μg/mL) A. baumannii.
Setting [7] is: no plasma, Table 2, read-out: MIC (μg/ml) S. aureus.
Where [8] appears, read: overnight 37° C., Table 1, read-out: MIC (μg/mL) S. aureus.

Experimental findings from patent publication US11952330B2, “Antibiotic ammonium compounds and methods for the treatment of bacterial infections” (priority 2019, dated 2024) are described below.

The structures appear in SMILES notation. Where two headings read alike, the source gives them in different places.

In the case of `CCCCCCCOc1cc(F)ccc1C(=O)Nc1ccc(S(=O)(=O)NCC[N+](CC)(CC)CCCC)cc1.[Br-]` [Compound 95, N,N-Diethyl-N-(2-((4-(4-fluoro-2-(heptyloxy)benzamido)phenyl)sulfonamido)-ethyl)butan-1-aminium bromide], the MIC with A. baumannii [1] (setting [5]) lay within 3 to 30 µg/mL. The MIC in the data set with A. baumannii [1] (setting [6]) lay in the range of 3 to 30 µg/mL. The “antimicrobial activity against Gram positive S. aureus relative to otilonium bromide, in words” value with S. aureus is “comparable or better than the activity of otilonium bromide”. In the data set with S. aureus (setting [7]), the MIC is 3 to 30 µg/mL. Moreover, the MIC in the data set on S. aureus (setting [8]) was in the range of 3 to 30 µg/mL. Further, in the data set on A. baumannii [2] (5% human plasma), the “stability in the presence of enzymes that are found in the gut, compared with otilonium bromide (11), in words” value was “better stability than otilonium bromide”. Moreover, the increase in stability result in the data set with A. baumannii [2] (5% human plasma, vs otilonium bromide (11)) was “four- to eight-fold”. Moreover, the “Δ MIC A. baumannii + human plasma” value in the data set on A. baumannii [2] is on record as 2X. For the same molecule, the “viability and colonization of ETEC in intestines” value in data set [3] is “significantly decreased viablity and colonization”. For the same molecule, the “viability and colonization of VRE in intestines” value in data set [4] is “significantly decreased viablity and colonization”. In addition, in the data set with human red blood cell, the “% hemolysis at 16 μg/ml” value worked out at 3%; the “% hemolysis at 32 μg/ml” value is 14%; the “hemolysis as compared to otilonium bromide (11), in words” value is listed as “reduced hemolysis as compared to otilonium bromide”; the “reduction in hemolysis as compared to otilonium bromide (11)” value was 85%.

In the case of `CCCCCCCCOc1cccc(OCCCCCCCC)c1C(=O)Nc1ccc(C(=O)OCC[N+](C)(CC)CC)cc1.[Br-]` [Compound 17, 2-((4-(2,6-Bis(octyloxy)benzamido)benzoyl)oxy)-N,N-diethyl-N-methylethan-1-aminium bromide], the MIC in the data set with A. baumannii [1] (setting [5]) was greater than 30 µg/mL. Besides, the MIC in the data set on A. baumannii [1] (setting [6]) is greater than 30 µg/mL. Besides, in the data set on S. aureus, the “antimicrobial activity against Gram positive S. aureus relative to otilonium bromide, in words” value is listed as “comparable or better than the activity of otilonium bromide” and the “selectivity for Gram positive microbes over Gram negative microbes, in words” value is “virtually complete selectivity for Gram positive microbes”. Besides, the MIC with S. aureus (setting [7]) is less than 3 µg/mL. The MIC in the data set with S. aureus (setting [8]) is 3 to 30 µg/mL. The “stability in the presence of enzymes that are found in the gut, compared with otilonium bromide (11), in words” value with A. baumannii [2] (5% human plasma) is “better stability than otilonium bromide”. Further, in the data set with human red blood cell, the “% hemolysis at 16 μg/ml” value is recorded as 59%; the “% hemolysis at 32 μg/ml” value is reported as 90%; the “hemolysis as compared to otilonium bromide (11), in words” value is listed as “reduced hemolysis as compared to otilonium bromide”.

As for `CCCCCCCCOc1ccccc1C(=O)Nc1ccc(C(=O)OCC[N+](C)(C)C)cc1.[Br-]` [Compound 11, N,N,N-Trimethyl-2-((4-(2-(octyloxy)benzamido)benzoyl)oxy)ethan-1-aminium bromide], the MIC in the data set on A. baumannii [1] (setting [5]), in the data set with A. baumannii [1] (setting [6]), in the data set with S. aureus (setting [7]) and in the data set on S. aureus (setting [8]) was 3 to 30 µg/mL throughout. Besides, the “Δ MIC A. baumannii + human plasma” value in the data set with A. baumannii [2] worked out at 8X. Also, the “% hemolysis at 16 μg/ml” value in the data set with human red blood cell came out at 7%. Also, the “% hemolysis at 32 μg/ml” value with human red blood cell was 92%.

For the molecule `CCCCCCOc1ccccc1C(=O)Nc1ccc(C(=O)OCC[N+](CC)(CC)CCCCC)cc1.[Br-]` [Compound 68, N,N-Diethyl-N-(2-((4-(2-(hexyloxy)benzamido)benzoyl)oxy)ethyl)pentan-1-aminium bromide], the MIC in the data set with A. baumannii [1] (setting [5]) is 3 to 30 µg/mL. Also, the MIC with A. baumannii [1] (setting [6]) fell in the range of 3 to 30 µg/mL. Besides, in the data set with S. aureus, the “antimicrobial activity against Gram positive S. aureus relative to otilonium bromide, in words” value is reported as “comparable or better than the activity of otilonium bromide” and the “selectivity for Gram positive microbes over Gram negative microbes, in words” value is “improved selective for Gram positive microbes over Gram negative microbes”. For the same molecule, the MIC with S. aureus (setting [7]) is less than 3 µg/mL. The MIC in the data set with S. aureus (setting [8]) was less than 3 µg/mL. For the same molecule, in the data set with A. baumannii [2] (5% human plasma), the “stability in the presence of enzymes that are found in the gut, compared with otilonium bromide (11), in words” value is “better stability than otilonium bromide”. In addition, the “Δ MIC A. baumannii + human plasma” value with A. baumannii [2] amounted to 8X. For the same molecule, in the data set on human red blood cell, the “% hemolysis at 16 μg/ml” value is 2%; the “% hemolysis at 32 μg/ml” value came out at 5%; the “hemolysis as compared to otilonium bromide (11), in words” value is listed as “reduced hemolysis as compared to otilonium bromide”; the “reduction in hemolysis as compared to otilonium bromide (11)” value is reported as 94%.
